Results taken from US9802937B2, “Substituted pyrazolo{4,3-D}pyrimidines as kinase inhibitors” (ORIGENIS GMBH, priority 2011, dated 2017).
pIC50, pKi: −log10 of the molar value.

Legend:
[1] = target: LRRK2 (Homo sapiens, UniProt Q5S007); experiment: LRRK2-LRRK2 G2019S-Assay (LanthaScreen Eu Kinase Binding Assay); details: 5 nM LRRK2 or their mutants, 10 nM tracer 236, RT 1 h; read-out: LRRK2 Activities: IC50
Procedure, shortened: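 TR-FRET tracer-displacement binding assay with 5 nM LRRK2 or mutant, 2 nM Eu-anti-GST antibody and 10 nM tracer 236 in kinase buffer A. Incubated 1 h at RT; 665/615 nm emission ratio read (ex 340 nm). IC50 from variable-slope sigmoidal fit.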

[2] = target: MYLK (Homo sapiens, UniProt Q15746); experiment: MYLK Assay (LanthaScreen Eu Kinase Binding Assay); details: 5 nM MYLK, 30 nM tracer 236, RT 1 h; read-out: MYLK Activities: IC50
Procedure: In the assay LanthaScreen™ Eu Kinase Binding Assay by Invitrogen Corporation (Carlsbad) the effect of invention of a compound on the phosphorylation is determined by measurement of fluorescence intensity emission ratio based on the binding and displacement of a proprietary, Alexa Fluor® 647-labeled, ATP-competitive kinase inhibitor scaffold (kinase tracer) to the kinase of interest as described above.
To the wells of an 384 well small volume plate (Greiner, Frickenhausen) are added (i) the compound under test in 5% is DMSO/distilled water (5 μl), (ii) 5 μl of the kinase antibody mixture resulting in a final concentration 5 nM MYLK, 2 nM EU-Anti-GST antibody in 1× kinase buffer A. The reaction was started with addition of (iii) 5 μl resulting in a final concentration of 30 nM tracer 236. The assay plate was incubated at RT for 1 h and fluorescence intensity readings were collected using a TECAN M1000 at two wavelengths of λex 340/λem 615 nm and λex 340/λem 665 nm with a delay time of 100 μs and an integration time of 200 μs after 60 minutes. The emission ratio was calculated by division of the acceptor/tracer emission ([…]) by the antibody/donor emission ([…]). The inhibitor concentration was plotted versus the emission ratio to determine the IC50 using XLFit 5.0 (IDBS, Guildford) to fit to a sigmoidal dose response curve with a variable slope.

[3] = target: T1, SYK kinase (Homo sapiens, UniProt P43405); experiment: SYK Assay (OMNIA KINASE ASSAY, SOX peptide fluorescence); assay type: biochemical; details: apparent Ki calculated from the IC50 using the Cheng-Prusoff equation; 1 mM ATP, 30° C.; read-out: SYK Activities: Ki
T1 construct: purchased Invitrogen, Carlsbad
Procedure, shortened: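 Continuous Omnia assay: SYK phosphorylation of SOX-labelled Tyr 7 peptide (10 µM) with 1 mM ATP and 0.2 mM DTT at 30 °C. Fluorescence (ex 360/em 485 nm) read every 30 s for 30 min. Reaction velocity versus inhibitor concentration gives IC50, converted to apparent Ki by Cheng-Prusoff.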

Sequence of LRRK2 (Q5S007 970-2527 limits assumed): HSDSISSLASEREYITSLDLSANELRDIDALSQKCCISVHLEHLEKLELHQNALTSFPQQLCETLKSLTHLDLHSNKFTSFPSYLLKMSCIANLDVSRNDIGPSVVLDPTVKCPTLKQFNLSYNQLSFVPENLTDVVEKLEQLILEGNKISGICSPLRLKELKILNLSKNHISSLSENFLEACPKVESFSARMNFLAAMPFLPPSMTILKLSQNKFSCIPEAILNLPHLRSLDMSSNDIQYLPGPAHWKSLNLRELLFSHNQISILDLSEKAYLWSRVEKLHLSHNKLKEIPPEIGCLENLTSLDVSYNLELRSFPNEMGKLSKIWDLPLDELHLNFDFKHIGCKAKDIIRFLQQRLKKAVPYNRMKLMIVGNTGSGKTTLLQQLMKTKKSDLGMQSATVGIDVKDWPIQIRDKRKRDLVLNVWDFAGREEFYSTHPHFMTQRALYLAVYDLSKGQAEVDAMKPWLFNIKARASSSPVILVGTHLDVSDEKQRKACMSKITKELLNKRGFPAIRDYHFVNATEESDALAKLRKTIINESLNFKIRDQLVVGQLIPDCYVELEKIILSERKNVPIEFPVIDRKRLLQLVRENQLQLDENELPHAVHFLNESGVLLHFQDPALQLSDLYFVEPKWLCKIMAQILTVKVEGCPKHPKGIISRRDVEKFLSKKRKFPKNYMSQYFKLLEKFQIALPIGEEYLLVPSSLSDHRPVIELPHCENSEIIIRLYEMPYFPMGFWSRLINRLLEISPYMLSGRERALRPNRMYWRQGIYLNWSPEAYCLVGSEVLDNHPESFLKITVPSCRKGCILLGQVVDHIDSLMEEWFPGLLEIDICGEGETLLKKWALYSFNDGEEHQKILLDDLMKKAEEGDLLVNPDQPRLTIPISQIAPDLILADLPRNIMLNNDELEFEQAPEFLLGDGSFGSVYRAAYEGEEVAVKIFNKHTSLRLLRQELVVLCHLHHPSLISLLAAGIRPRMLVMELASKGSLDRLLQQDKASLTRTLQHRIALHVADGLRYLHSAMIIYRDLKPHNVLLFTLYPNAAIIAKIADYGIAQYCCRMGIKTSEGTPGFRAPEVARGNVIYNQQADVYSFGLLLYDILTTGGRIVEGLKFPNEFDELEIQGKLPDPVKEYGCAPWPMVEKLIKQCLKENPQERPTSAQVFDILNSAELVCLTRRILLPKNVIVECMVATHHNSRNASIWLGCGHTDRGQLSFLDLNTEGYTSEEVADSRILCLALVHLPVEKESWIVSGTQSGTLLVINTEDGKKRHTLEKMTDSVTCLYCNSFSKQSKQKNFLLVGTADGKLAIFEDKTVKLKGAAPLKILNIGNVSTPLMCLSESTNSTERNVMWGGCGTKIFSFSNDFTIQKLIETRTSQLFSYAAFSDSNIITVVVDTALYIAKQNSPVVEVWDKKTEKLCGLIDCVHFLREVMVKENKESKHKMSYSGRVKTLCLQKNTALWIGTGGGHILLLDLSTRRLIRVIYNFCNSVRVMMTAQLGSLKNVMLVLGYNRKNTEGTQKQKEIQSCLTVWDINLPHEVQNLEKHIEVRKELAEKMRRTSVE
Sequence of MYLK (Q15746 whole entry): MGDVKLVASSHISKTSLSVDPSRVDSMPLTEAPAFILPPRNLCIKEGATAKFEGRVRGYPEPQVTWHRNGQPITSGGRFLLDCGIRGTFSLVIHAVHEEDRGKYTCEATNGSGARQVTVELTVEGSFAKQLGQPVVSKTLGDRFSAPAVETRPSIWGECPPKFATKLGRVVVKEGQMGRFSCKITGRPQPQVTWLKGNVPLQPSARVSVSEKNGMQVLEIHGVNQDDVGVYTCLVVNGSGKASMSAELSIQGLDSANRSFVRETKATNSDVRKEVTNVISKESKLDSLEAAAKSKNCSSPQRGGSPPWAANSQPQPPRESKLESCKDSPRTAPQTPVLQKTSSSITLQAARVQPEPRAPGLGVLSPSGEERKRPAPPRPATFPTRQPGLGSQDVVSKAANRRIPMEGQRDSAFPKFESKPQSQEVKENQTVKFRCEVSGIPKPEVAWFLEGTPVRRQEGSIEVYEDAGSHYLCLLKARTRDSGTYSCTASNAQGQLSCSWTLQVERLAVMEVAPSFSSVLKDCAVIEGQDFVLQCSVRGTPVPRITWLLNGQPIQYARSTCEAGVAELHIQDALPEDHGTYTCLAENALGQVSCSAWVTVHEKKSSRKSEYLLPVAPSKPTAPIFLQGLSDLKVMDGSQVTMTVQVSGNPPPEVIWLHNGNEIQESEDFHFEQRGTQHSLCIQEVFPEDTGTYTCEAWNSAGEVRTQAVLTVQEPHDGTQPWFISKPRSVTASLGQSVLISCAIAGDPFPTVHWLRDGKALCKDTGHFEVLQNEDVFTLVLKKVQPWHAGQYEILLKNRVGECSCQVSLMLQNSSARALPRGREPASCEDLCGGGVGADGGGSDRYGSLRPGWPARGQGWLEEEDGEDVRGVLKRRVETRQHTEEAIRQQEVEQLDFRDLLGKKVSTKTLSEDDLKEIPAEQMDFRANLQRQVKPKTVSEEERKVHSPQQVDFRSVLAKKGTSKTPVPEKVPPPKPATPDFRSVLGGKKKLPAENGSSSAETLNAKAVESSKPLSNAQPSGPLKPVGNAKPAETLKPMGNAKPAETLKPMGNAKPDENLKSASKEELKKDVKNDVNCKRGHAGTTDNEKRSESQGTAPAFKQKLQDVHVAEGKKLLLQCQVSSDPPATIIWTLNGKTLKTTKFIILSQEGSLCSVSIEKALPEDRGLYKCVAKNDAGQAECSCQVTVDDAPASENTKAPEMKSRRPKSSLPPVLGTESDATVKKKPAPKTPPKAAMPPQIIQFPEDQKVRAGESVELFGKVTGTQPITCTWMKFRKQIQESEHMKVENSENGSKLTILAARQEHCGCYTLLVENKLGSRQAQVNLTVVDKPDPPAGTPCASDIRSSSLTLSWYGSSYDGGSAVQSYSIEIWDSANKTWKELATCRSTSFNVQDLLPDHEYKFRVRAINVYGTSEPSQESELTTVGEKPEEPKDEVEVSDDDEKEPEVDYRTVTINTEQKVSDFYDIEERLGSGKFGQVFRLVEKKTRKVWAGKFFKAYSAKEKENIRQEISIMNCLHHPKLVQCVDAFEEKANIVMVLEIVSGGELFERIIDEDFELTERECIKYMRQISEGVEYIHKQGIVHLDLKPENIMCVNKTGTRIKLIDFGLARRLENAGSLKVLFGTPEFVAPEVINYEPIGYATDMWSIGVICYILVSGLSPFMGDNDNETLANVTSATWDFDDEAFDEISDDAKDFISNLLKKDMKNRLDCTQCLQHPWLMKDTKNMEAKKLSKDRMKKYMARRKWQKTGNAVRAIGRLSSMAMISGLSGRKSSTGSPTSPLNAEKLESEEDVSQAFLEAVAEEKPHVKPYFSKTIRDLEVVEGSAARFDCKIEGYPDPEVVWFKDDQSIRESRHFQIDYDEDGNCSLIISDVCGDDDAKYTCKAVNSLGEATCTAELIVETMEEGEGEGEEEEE

pIC50 [1] | pIC50 [2] | pKi [3] | Compound
6.00 to 7.00 | > 5.30 | 6.00 to 7.00 | O=C1COc2ccc(Nc3nc(-c4ccncc4)nc4cn[nH]c34)cc2N1 [Example #21, 6-((5-(pyridin-4-yl)-1H-pyrazolo[4,3-d]pyrimidin-7-yl)amino)-2H-benzo[b][1,4]oxazin-3(4H)-one]
6.00 to 7.00 | > 5.30 | > 8.00 | COc1ccc(-c2nc(Nc3ccc(N4CCN(C)CC4)cc3)c3[nH]ncc3n2)cc1OC [Example #34, 5-(3,4-dimethoxyphenyl)-N-(4-(4-methylpiperazin-1-yl)phenyl)-1H-pyrazolo[4,3-d]pyrimidin-7-amine]
6.00 to 7.00 | > 5.30 | > 8.00 | CSc1cccc(-c2nc(Nc3ccc(N4CCN(C)CC4)cc3)c3[nH]ncc3n2)c1 [Example #225, N-(4-(4-methylpiperazin-1-yl)phenyl)-5-(3-(methylthio)phenyl)-1H-pyrazolo[4,3-d]pyrimidin-7-amine]
7.00 to 8.00 | > 5.30 | > 8.00 | O=S1(=O)CCN(c2ccc(Nc3nc(-c4ccsc4)nc4cn[nH]c34)cc2)CC1 [Example #143, 4-(4-((5-(thiophen-3-yl)-1H-pyrazolo[4,3-d]pyrimidin-7-yl)amino)phenyl)thiomorpholine 1,1-dioxide]
6.00 to 7.00 | > 5.30 | 7.00 to 8.00 | CN1CCN(C2CCN(c3ccc(Nc4nc(-c5c(F)cccc5F)nc5cn[nH]c45)cc3)CC2)CC1 [Example #284, 5-(2,6-difluorophenyl)-N-(4-(4-(4-methylpiperazin-1-yl)piperidin-1-yl)phenyl)-1H-pyrazolo[4,3-d]pyrimidin-7-amine]
6.00 to 7.00 | > 5.30 | > 8.00 | COc1ccc(Nc2nc(-c3cccc(NS(C)(=O)=O)c3)nc3cn[nH]c23)cc1OC [Example #189, N-(3-(7-((3,4-dimethoxyphenyl)amino)-1H-pyrazolo[4,3-d]pyrimidin-5-yl)phenyl)methanesulfonamide]
6.00 to 7.00 | > 5.30 | 7.00 to 8.00 | CS(=O)(=O)c1cccc(Nc2nc(-c3cccs3)nc3cn[nH]c23)c1 [Example #254, N-(3-(methylsulfonyl)phenyl)-5-(thiophen-2-yl)-1H-pyrazolo[4,3-d]pyrimidin-7-amine]
7.00 to 8.00 | > 5.30 | > 8.00 | CN1CCN(c2ccc(Nc3nc(-c4ccc(N5CCCC5)nc4)nc4cn[nH]c34)cc2)CC1 [Example #46, N-(4-(4-methylpiperazin-1-yl)phenyl)-5-(6-(pyrrolidin-1-yl)pyridin-3-yl)-1H-pyrazolo[4,3-d]pyrimidin-7-amine]
7.00 to 8.00 | > 5.30 | > 8.00 | COc1cccc(-c2nc(Nc3ccc(N4CCN(C)CC4)cc3)c3[nH]ncc3n2)c1 [Example #62, 5-(3-methoxyphenyl)-N-(4-(4-methylpiperazin-1-yl)phenyl)-1H-pyrazolo[4,3-d]pyrimidin-7-amine]
6.00 to 7.00 | > 5.30 | > 8.00 | COc1ccc(Nc2nc(-c3cccs3)nc3cn[nH]c23)cc1OC [Example #68, N-(3,4-dimethoxyphenyl)-5-(thiophen-2-yl)-1H-pyrazolo[4,3-d]pyrimidin-7-amine]
6.00 to 7.00 | > 5.30 | > 8.00 | COc1ccc(-c2nc(Nc3ccc(N4CCN(C(C)(C)C)CC4)cc3)c3[nH]ncc3n2)cc1 [Example #172, N-(4-(4-(tert-butyl)piperazin-1-yl)phenyl)-5-(4-methoxyphenyl)-1H-pyrazolo[4,3-d]pyrimidin-7-amine]
6.00 to 7.00 | > 5.30 | 7.00 to 8.00 | C[S+]([O-])c1cccc(Nc2nc(-c3cccs3)nc3cn[nH]c23)c1 (stereo not drawn) [Example #268, N-(3-(methylsulfinyl)phenyl)-5-(thiophen-2-yl)-1H-pyrazolo[4,3-d]pyrimidin-7-amine]
7.00 to 8.00 | > 5.30 | > 8.00 | NS(=O)(=O)c1cccc(-c2nc(Nc3ccc4c(c3)NC(=O)CC4)c3[nH]ncc3n2)c1 [Example #238, 3-(7-((2-oxo-1,2,3,4-tetrahydroquinolin-7-yl)amino)-1H-pyrazolo[4,3-d]pyrimidin-5-yl)benzenesulfonamide]
6.00 to 7.00 | > 5.30 | > 8.00 | CN1CCN(c2ccc(Nc3nc(-c4ccsc4)nc4cn[nH]c34)cc2)CC1 [Example #74, N-(4-(4-methylpiperazin-1-yl)phenyl)-5-(thiophen-3-yl)-1H-pyrazolo[4,3-d]pyrimidin-7-amine]
6.00 to 7.00 | > 5.30 | > 8.00 | CN1CCN(c2ccc(Nc3nc(-c4nccs4)nc4cn[nH]c34)cc2)CC1 [Example #179, N-(4-(4-methylpiperazin-1-yl)phenyl)-5-(thiazol-2-yl)-1H-pyrazolo[4,3-d]pyrimidin-7-amine]
6.00 to 7.00 | > 5.30 | 7.00 to 8.00 | Oc1cccc(Nc2nc(-c3cccs3)nc3cn[nH]c23)c1 [Example #83, 3-((5-(thiophen-2-yl)-1H-pyrazolo[4,3-d]pyrimidin-7-yl)amino)phenol]
6.00 to 7.00 | > 5.30 | > 8.00 | CC(C)(C)N1CCN(c2ccc(Nc3nc(-c4cccs4)nc4cn[nH]c34)cc2)CC1 [Example #163, N-(4-(4-(tert-butyl)piperazin-1-yl)phenyl)-5-(thiophen-2-yl)-1H-pyrazolo[4,3-d]pyrimidin-7-amine]
6.00 to 7.00 | > 5.30 | > 8.00 | COc1cccc(-c2nc(Nc3ccc(CN4CCN(C)CC4)cc3)c3[nH]ncc3n2)c1 [Example #131, 5-(3-methoxyphenyl)-N-(4-((4-methylpiperazin-1-yl)methyl)phenyl)-1H-pyrazolo[4,3-d]pyrimidin-7-amine]
7.00 to 8.00 | > 5.30 | 7.00 to 8.00 | COc1cc(C(=O)N2CCC(N3CCN(C)CC3)CC2)ccc1Nc1nc(-c2cccs2)nc2cn[nH]c12 [Example #139, (3-methoxy-4-((5-(thiophen-2-yl)-1H-pyrazolo[4,3-d]pyrimidin-7-yl)amino)phenyl)(4-(4-methylpiperazin-1-yl)piperidin-1-yl)methanone]
7.00 to 8.00 | > 5.30 | > 8.00 | CN1CCN(c2ccc(Nc3nc(-c4cccc(S(N)(=O)=O)c4)nc4cn[nH]c34)cc2)CC1 [Example #182, 3-(7-((4-(4-methylpiperazin-1-yl)phenyl)amino)-1H-pyrazolo[4,3-d]pyrimidin-5-yl)benzenesulfonamide]
7.00 to 8.00 | > 5.30 | 7.00 to 8.00 | CN1CCN(C(=O)c2ccc(Nc3nc(-c4ccsc4)nc4cn[nH]c34)cc2)CC1 [Example #147, (4-methylpiperazin-1-yl)(4-((5-(thiophen-3-yl)-1H-pyrazolo[4,3-d]pyrimidin-7-yl)amino)phenyl)methanone]
6.00 to 7.00 | > 5.30 | > 8.00 | CN1CCN(c2ccc(Nc3nc(-c4cccc(-c5cccnc5)c4)nc4cn[nH]c34)cc2)CC1 [Example #99, N-(4-(4-methylpiperazin-1-yl)phenyl)-5-(3-(pyridin-3-yl)phenyl)-1H-pyrazolo[4,3-d]pyrimidin-7-amine]
6.00 to 7.00 | > 5.30 | 7.00 to 8.00 | CN(C)Cc1ccc(Nc2nc(-c3ccccc3)nc3cn[nH]c23)cc1 [Example #120, N-(4-((dimethylamino)methyl)phenyl)-5-phenyl-1H-pyrazolo[4,3-d]pyrimidin-7-amine]
6.00 to 7.00 | > 5.30 | 7.00 to 8.00 | CN(C)c1cccc(Nc2nc(-c3ccsc3)nc3cn[nH]c23)c1 [Example #114, N1,N1-dimethyl-N3-(5-(thiophen-3-yl)-1H-pyrazolo[4,3-d]pyrimidin-7-yl)benzene-1,3-diamine]
6.00 to 7.00 | > 5.30 | 7.00 to 8.00 | Fc1ccccc1-c1nc(Nc2ccc(N3CCN(C4CC4)CC3)cc2)c2[nH]ncc2n1 [Example #279, N-(4-(4-cyclopropylpiperazin-1-yl)phenyl)-5-(2-fluorophenyl)-1H-pyrazolo[4,3-d]pyrimidin-7-amine]
7.00 to 8.00 | > 5.30 | > 8.00 | CN1CCN(c2ccc(Nc3nc(-c4ccsc4)nc4cn[nH]c34)cn2)CC1 [Example #118, N-(6-(4-methylpiperazin-1-yl)pyridin-3-yl)-5-(thiophen-3-yl)-1H-pyrazolo[4,3-d]pyrimidin-7-amine]
